According to US9302999B2, “Substituted triazoles as herbicides” (E. I. DU PONT DE NEMOURS AND COMPANY, priority 2012, dated 2016):

Assays:
Assay type in all cases: in vivo
Conditions in all cases: Preemergence, scale 0 to 100
[1] = tested on: velvetleaf (Abutilon theophrasti); test: Test E pre-/postemergence: velvetleaf
From the text: (§1) Seeds of plant species selected from corn (Zea mays), soybean (Glycine max), velvetleaf (Abutilon theophrasti), lambsquarters (Chenopodium album), poinsettia, wild (wild poinsettia, Euphorbia heterophylla), pigweed, palmer (palmer pigweed, Amaranthus palmeri), waterhemp (common waterhemp, Amaranthus rudis), smartweed (ladysthumb smartweed, Polygonum persicaria), surinam grass (Brachiaria decumbens), crabgrass, large (large crabgrass, Digitaria sanguinalis), crabgrass, Brazil (Brazilian crabgrass, Digitaria horizontalis), panicum, fall (fall panicum, Panicum dichotomiflorum), foxtail, giant (giant foxtail, Setaria faberii), foxtail, green (green foxtail, Setaria viridis), goosegrass (Eleusine indica), johnsongrass (Sorghum halepense), ragweed (common ragweed, Ambrosia elation), barnyardgrass (Echinochloa crus-galli), sandbur (southern sandbur, Cenchrus echinatus), arrowleaf sida (Sida rhombifolia), ryegrass, Italian (Italian ryegrass, Lolium multiflorum), dayflower, (VA) (Virginia dayflower, Commelina virginica), field bindweed (Convolvulus arvensis), cocklebur (common cocklebur, Xanthium strumarium), morningglory (Ipomoea coccinea), nightshade (eastern black nightshade, Solanum ptycanthum), kochia (Kochia scoparia), nutsedge, yellow (yellow nutsedge, Cyperus esculentus) and beggarticks (hairy beggarticks, Bidens pilosa) were planted into a silt loam soil and treated preemergence with test chemicals formulated in a non-phytotoxic solvent mixture which included a surfactant. At the same time, plants selected from these crop and weed species were planted in pots containing a growing medium comprising spaghnum peat moss, vermiculite, wetting agent and starter nutrients and treated with postemergence applications of some of the test chemicals formulated in the same manner. Plants ranged in height from 2 to 18 cm for postemergence treatments (1- to 4-leaf stage).
(§2) Treated plants and controls were maintained in a greenhouse for 14 to 21 days, after which time all species were compared to controls and visually evaluated. Plant response ratings, summarized in Table E, are based on a scale of 0 to 100 where 0 is no effect and 100 is complete control. A dash (-) response means no test result.

kochia (Kochia scoparia) = test: Test E pre-/postemergence: kochia
From the text: as §1, §2

[2] = tested on: ryegrass, Italian (Italian ryegrass, Lolium multiflorum); test: Test E pre-/postemergence: ryegrass, Italian
From the text: as §1, §2

[3] = tested on: foxtail, green (green foxtail, Setaria viridis); test: Test E pre-/postemergence: foxtail, green
From the text: as §1, §2

[4] = tested on: lambsquarters (Chenopodium album); test: Test E pre-/postemergence: lambsquarters
From the text: as §1, §2

[5] = tested on: arrowleaf sida (Sida rhombifolia); test: Test E pre-/postemergence: arrowleaf sida
From the text: as §1, §2

[6] = tested on: dayflower, (VA) (Virginia dayflower, Commelina virginica); test: Test E pre-/postemergence: dayflower, (VA)
From the text: as §1, §2

[7] = tested on: pigweed, palmer (palmer pigweed, Amaranthus palmeri); test: Test E pre-/postemergence: pigweed, palmer
From the text: as §1, §2

SMILES: COc1nn(-c2ccc(C(F)(F)F)cc2)nc1Cc1ccnc(C(F)(F)F)c1 [Compound 15, 4-[[5-methoxy-2-[4-(trifluoromethyl)phenyl]-2H-1,2,3-triazol-4-yl]methyl]-2-(trifluoromethyl)pyridine]
- Plant response rating: Velvetleaf ([1]; 16 g ai/ha): 20
- Plant response rating: Velvetleaf ([1]; 31 g ai/ha): 30
- Plant response rating: Velvetleaf ([1]; 62 g ai/ha): 65
- Plant response rating: Velvetleaf ([1]; 125 g ai/ha): 65
- Plant response rating: Velvetleaf ([1]; 250 g ai/ha): 95
- Plant response rating: Kochia (kochia (Kochia scoparia); 16 g ai/ha): 35
- Plant response rating: Kochia (kochia (Kochia scoparia); 31 g ai/ha): 65
- Plant response rating: Kochia (kochia (Kochia scoparia); 62 g ai/ha): 90
- Plant response rating: Kochia (kochia (Kochia scoparia); 125 g ai/ha): 100
- Plant response rating: Kochia (kochia (Kochia scoparia); 250 g ai/ha): 100
- Plant response rating: Ryegrass, Italian ([2]; 16 g ai/ha): 20
- Plant response rating: Ryegrass, Italian ([2]; 31 g ai/ha): 75
- Plant response rating: Ryegrass, Italian ([2]; 62 g ai/ha): 80
- Plant response rating: Ryegrass, Italian ([2]; 125 g ai/ha): 100
- Plant response rating: Ryegrass, Italian ([2]; 250 g ai/ha): 100
- Plant response rating: Foxtail, Green ([3]; 16 g ai/ha): 20
- Plant response rating: Foxtail, Green ([3]; 62 g ai/ha): 90
- Plant response rating: Foxtail, Green ([3]; 125 g ai/ha): 100
- Plant response rating: Foxtail, Green ([3]; 250 g ai/ha): 100
- Plant response rating: Lambsquarters ([4]; 16 g ai/ha): 90
- Plant response rating: Lambsquarters ([4]; 31 g ai/ha): 100
- Plant response rating: Lambsquarters ([4]; 62 g ai/ha): 100
- Plant response rating: Lambsquarters ([4]; 125 g ai/ha): 100
- Plant response rating: Lambsquarters ([4]; 250 g ai/ha): 100
- Plant response rating: Arrowleaf Sida ([5]; 31 g ai/ha): 30
- Plant response rating: Arrowleaf Sida ([5]; 62 g ai/ha): 40
- Plant response rating: Arrowleaf Sida ([5]; 125 g ai/ha): 50
- Plant response rating: Arrowleaf Sida ([5]; 250 g ai/ha): 60
- Plant response rating: Dayflower, VA ([6]; 16 g ai/ha): 5
- Plant response rating: Dayflower, VA ([6]; 31 g ai/ha): 10
- Plant response rating: Dayflower, VA ([6]; 62 g ai/ha): 25
- Plant response rating: Dayflower, VA ([6]; 125 g ai/ha): 60
- Plant response rating: Dayflower, VA ([6]; 250 g ai/ha): 95
- Plant response rating: Pigweed, Palmer ([7]; 16 g ai/ha): 100
- Plant response rating: Pigweed, Palmer ([7]; 31 g ai/ha): 100
- Plant response rating: Pigweed, Palmer ([7]; 62 g ai/ha): 100
- Plant response rating: Pigweed, Palmer ([7]; 125 g ai/ha): 100
- Plant response rating: Pigweed, Palmer ([7]; 250 g ai/ha): 100

SMILES: FC(F)(F)COc1nn(-c2ccc(C(F)(F)F)cc2)nc1Cc1ccnc(C(F)(F)F)c1 [Compound 14, 4-[[5-(2,2,2-trifluoroethoxy)-2-[4-(trifluoromethyl)phenyl]-2H-1,2,3-triazol-4-yl]methyl]-2-(trifluoromethyl)pyridine]
- Plant response rating: Velvetleaf ([1]; 16 g ai/ha): 20
- Plant response rating: Velvetleaf ([1]; 31 g ai/ha): 35
- Plant response rating: Velvetleaf ([1]; 62 g ai/ha): 50
- Plant response rating: Velvetleaf ([1]; 125 g ai/ha): 80
- Plant response rating: Velvetleaf ([1]; 250 g ai/ha): 95
- Plant response rating: Kochia (kochia (Kochia scoparia); 16 g ai/ha): 20
- Plant response rating: Kochia (kochia (Kochia scoparia); 31 g ai/ha): 50
- Plant response rating: Kochia (kochia (Kochia scoparia); 62 g ai/ha): 90
- Plant response rating: Kochia (kochia (Kochia scoparia); 125 g ai/ha): 98
- Plant response rating: Kochia (kochia (Kochia scoparia); 250 g ai/ha): 100
- Plant response rating: Ryegrass, Italian ([2]; 16 g ai/ha): 0
- Plant response rating: Ryegrass, Italian ([2]; 31 g ai/ha): 40
- Plant response rating: Ryegrass, Italian ([2]; 62 g ai/ha): 85
- Plant response rating: Ryegrass, Italian ([2]; 125 g ai/ha): 95
- Plant response rating: Ryegrass, Italian ([2]; 250 g ai/ha): 100
- Plant response rating: Foxtail, Green ([3]; 16 g ai/ha): 25
- Plant response rating: Foxtail, Green ([3]; 31 g ai/ha): 35
- Plant response rating: Foxtail, Green ([3]; 62 g ai/ha): 50
- Plant response rating: Foxtail, Green ([3]; 125 g ai/ha): 70
- Plant response rating: Foxtail, Green ([3]; 250 g ai/ha): 100
- Plant response rating: Lambsquarters ([4]; 16 g ai/ha): 80
- Plant response rating: Lambsquarters ([4]; 31 g ai/ha): 98
- Plant response rating: Lambsquarters ([4]; 62 g ai/ha): 98
- Plant response rating: Lambsquarters ([4]; 125 g ai/ha): 98
- Plant response rating: Lambsquarters ([4]; 250 g ai/ha): 98
- Plant response rating: Arrowleaf Sida ([5]; 16 g ai/ha): 10
- Plant response rating: Arrowleaf Sida ([5]; 31 g ai/ha): 30
- Plant response rating: Arrowleaf Sida ([5]; 62 g ai/ha): 30
- Plant response rating: Arrowleaf Sida ([5]; 125 g ai/ha): 65
- Plant response rating: Arrowleaf Sida ([5]; 250 g ai/ha): 80
- Plant response rating: Dayflower, VA ([6]; 16 g ai/ha): 10
- Plant response rating: Dayflower, VA ([6]; 31 g ai/ha): 50
- Plant response rating: Dayflower, VA ([6]; 62 g ai/ha): 60
- Plant response rating: Dayflower, VA ([6]; 125 g ai/ha): 70
- Plant response rating: Dayflower, VA ([6]; 250 g ai/ha): 75
- Plant response rating: Pigweed, Palmer ([7]; 16 g ai/ha): 75
- Plant response rating: Pigweed, Palmer ([7]; 31 g ai/ha): 100
- Plant response rating: Pigweed, Palmer ([7]; 62 g ai/ha): 100
- Plant response rating: Pigweed, Palmer ([7]; 125 g ai/ha): 100
- Plant response rating: Pigweed, Palmer ([7]; 250 g ai/ha): 100
